Measured values: ChEMBL document CHEMBL1201862, “PubChem BioAssay data set” (2004)
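48-hour exposure; five concentrations; linearly interpolated endpoints. At the GI50, growth is halved.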 Activity calls are given as the source filed them. Rule as the data show it: active = GI50 up to about 1.1 µM and inactive = higher.

Legend:
Assay in all cases: DTP human tumour cell line panel, 48 h
SK-MEL-5 = test system: SK-MEL-5
SF-539 = test system: SF-539
NCI/ADR-RES = test system: NCI/ADR-RES
MDA-MB-231 = test system: MDA-MB-231
CAKI-1 = test system: CAKI-1
SNB-75 = test system: SNB-75
DMS-114 = test system: DMS-114
UACC-257 = test system: UACC-257
UO-31 = test system: UO-31
KM12 = test system: KM12
SK-MEL-2 = test system: SK-MEL-2
OVCAR-8 = test system: OVCAR-8
Hs-578T = test system: Hs-578T
MCF7 = test system: MCF7
M14 = test system: M14
K562 = test system: K562
U-251 = test system: U-251
T47D = test system: T47D
CCRF-CEM = test system: CCRF-CEM
COLO 205 = test system: COLO 205

Compound	GI50 (SK-MEL-5)	GI50 (SF-539)	GI50 (NCI/ADR-RES)	GI50 (MDA-MB-231)	GI50 (CAKI-1)	GI50 (SNB-75)	GI50 (DMS-114)	GI50 (UACC-257)	GI50 (UO-31)	GI50 (KM12)	GI50 (SK-MEL-2)	GI50 (OVCAR-8)	GI50 (Hs-578T)	GI50 (MCF7)	GI50 (M14)	GI50 (K562)	GI50 (U-251)	GI50 (T47D)	GI50 (CCRF-CEM)	GI50 (COLO 205)
COc1cc(/C=C/c2ccc(/C=C/c3cc(OC)c(OC)c(OC)c3)cc2)cc(OC)c1OC	34.4 µM (inactive)	4.6 µM (inactive)	22.2 µM (inactive)	19.9 µM (inactive)	21.6 µM (inactive)	6.34 µM (inactive)	22.4 µM (inactive)	58.7 µM (inactive)	36.1 µM (inactive)	29.5 µM (inactive)	20.7 µM (inactive)	12.2 µM (inactive)	18.9 µM (inactive)	> 100 µM (inactive)	39.3 µM (inactive)	96.2 µM (inactive)	13.3 µM (inactive)	3.39 µM (inactive)	> 100 µM (inactive)	51.3 µM (inactive)
CC(O)CCC(=O)c1ccoc1 (centres undefined)	4560 µM (inactive)	9930 µM (inactive)	4990 µM (inactive)	> 7830 µM (inactive)	2730 µM (inactive)	3500 µM (inactive)	2610 µM (inactive)	5130 µM (inactive)	3390 µM (inactive)	7710 µM (inactive)	7710 µM (inactive)	6840 µM (inactive)	5120 µM (inactive)	5680 µM (inactive)	> 9420 µM (inactive)	6180 µM (inactive)	6780 µM (inactive)	5010 µM (inactive)	5650 µM (inactive)	5580 µM (inactive)
C#CC(C)(C)OCCCCOc1cc(O)c2c(=O)c3ccccc3n(C)c2c1	66.5 µM (inactive)	> 100 µM (inactive)			> 100 µM (inactive)	84.5 µM (inactive)	29.3 µM (inactive)	> 100 µM (inactive)	> 100 µM (inactive)	97.9 µM (inactive)	> 100 µM (inactive)	> 100 µM (inactive)			87.9 µM (inactive)	> 100 µM (inactive)	> 100 µM (inactive)		> 100 µM (inactive)	23.7 µM (inactive)
Nc1ncnc(NC2C=C(CO)C(O)C2O)c1[N+](=O)[O-] (centres undefined)	> 100 µM (inactive)	> 100 µM (inactive)			> 100 µM (inactive)	> 100 µM (inactive)	> 100 µM (inactive)	> 100 µM (inactive)	> 100 µM (inactive)	> 100 µM (inactive)	> 100 µM (inactive)	> 100 µM (inactive)			> 100 µM (inactive)	> 100 µM (inactive)	> 100 µM (inactive)		> 100 µM (inactive)	60.3 µM (inactive)
Cc1cc(C)nc(/C(=N\NC(N)=O)C(=O)Nc2nc3ccc(C)cc3s2)c1	> 100 µM (inactive)	> 100 µM (inactive)			> 100 µM (inactive)	> 100 µM (inactive)	> 48.5 µM (inactive)	> 100 µM (inactive)	> 100 µM (inactive)	> 100 µM (inactive)	> 100 µM (inactive)	> 100 µM (inactive)			> 100 µM (inactive)	> 61.4 µM (inactive)	> 100 µM (inactive)		> 48.1 µM (inactive)	> 47.8 µM (inactive)
COC1(OC)CCC2C1C1CCC(OC)(OC)C21 (centres undefined)	> 50 µM (inactive)	> 50 µM (inactive)			> 50 µM (inactive)	> 50 µM (inactive)	> 50 µM (inactive)	> 50 µM (inactive)	> 50 µM (inactive)	> 50 µM (inactive)	> 50 µM (inactive)	> 50 µM (inactive)			> 50 µM (inactive)	> 50 µM (inactive)	> 50 µM (inactive)		> 50 µM (inactive)	> 50 µM (inactive)
Nc1nc(CCC(=O)Nc2cccc(C(F)(F)F)c2)cc(-c2ccc3ccccc3c2)n1	> 100 µM (inactive)	> 100 µM (inactive)			> 100 µM (inactive)	> 100 µM (inactive)	> 100 µM (inactive)	> 100 µM (inactive)	> 100 µM (inactive)	> 100 µM (inactive)	> 100 µM (inactive)	> 100 µM (inactive)			> 100 µM (inactive)	> 100 µM (inactive)	> 100 µM (inactive)		> 100 µM (inactive)	> 100 µM (inactive)
CN(C)C(=S)/N=c1\ssc(=S)n1Cc1cccnc1	1.67 µM (inactive)	4.02 µM (inactive)	1.01 µM (active)	6.07 µM (inactive)	3.16 µM (inactive)	1.91 µM (inactive)	0.783 µM (active)	4.23 µM (inactive)	13.1 µM (inactive)	1 µM (active)	2.29 µM (inactive)	3.66 µM (inactive)	1.86 µM (inactive)	2.91 µM (inactive)	2.37 µM (inactive)	1.12 µM (active)	3.38 µM (inactive)	> 100 µM (inactive)	8.53 µM (inactive)	2.2 µM (inactive)
Cn1cnc([N+](=O)[O-])c1Sc1nc(N)nc2c1ncn2C1OC(CO)C(O)C1O (centres undefined)	6.22 µM (inactive)	2.9 µM (inactive)	0.182 µM (active)	0.783 µM (active)	6.19 µM (inactive)	6.44 µM (inactive)	10.7 µM (inactive)	15.2 µM (inactive)	5.12 µM (inactive)	5.51 µM (inactive)	0.497 µM (active)	2.51 µM (inactive)	1.97 µM (inactive)		2.28 µM (inactive)	5.13 µM (inactive)	21.7 µM (inactive)	5.38 µM (inactive)	3.15 µM (inactive)	7.83 µM (inactive)
